# According to patent US11753432B2, “Compound with analgesic effect for use in prevention and treatment of pain” (Academia Sinica, priority 2017, dated 2023):
# Columns and labels:
# [1] = molecular target: T1, NK1R receptor in muscle nociceptors (Mus musculus, UniProt P30548); assay: Whole-cell patch clamp recording on muscle nociceptors (outward current); format: cell-based
# T1 construct: whole-cell patch clamp recording on muscle nociceptors; endogenous in cells; host or cells: muscle nociceptors (primary sensory neurons; preparation not described)
# T1 sequence (P30548 whole entry): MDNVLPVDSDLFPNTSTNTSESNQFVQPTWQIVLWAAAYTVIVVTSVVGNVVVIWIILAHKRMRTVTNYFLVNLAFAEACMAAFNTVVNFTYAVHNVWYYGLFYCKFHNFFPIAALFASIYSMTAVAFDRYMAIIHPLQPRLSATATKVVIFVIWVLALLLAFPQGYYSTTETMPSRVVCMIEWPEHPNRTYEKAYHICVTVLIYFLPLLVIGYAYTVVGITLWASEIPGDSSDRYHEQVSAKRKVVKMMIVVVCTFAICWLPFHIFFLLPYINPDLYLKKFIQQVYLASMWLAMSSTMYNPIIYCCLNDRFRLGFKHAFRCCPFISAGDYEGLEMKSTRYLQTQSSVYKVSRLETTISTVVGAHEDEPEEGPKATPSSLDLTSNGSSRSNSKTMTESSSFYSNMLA
# Text: The JMF3737-induced outward current (IJMF3737) can cause nociceptor hyperpolarization and thus counteract the acid-induced depolarization in muscle nociceptors and thus inhibit pain associated with tissue acidosis.
# [2] = Tolerated dose / safety range in the ICS mouse model; format: in vivo
# Protocol: Female C57BL/6JNarl mice aged 8-12 weeks were purchased from the National Laboratory Animal Center (Taipei, Taiwan). […] Mechanical hyperalgesia was assayed by testing the withdrawal response of mouse hindpaws to 0.2-mN von Frey filament stimulation.
# [3] = system: mouse model of fibromyalgia (chronic widespread pain induced by intermittent cold stress); assay: Intermittent cold stress (ICS) mouse model of fibromyalgia; mechanical hyperalgesia, hindpaw withdrawal to 0.2-mN von Frey filament; format: in vivo, mice (female C57BL/6JNarl); conditions: for tolerance / therapeutic effect on repeated treatment: 1 mg/kg p.o. once a day for 4 days from day 5 after ICS
# Protocol: Female C57BL/6JNarl mice aged 8-12 weeks were purchased from the National Laboratory Animal Center (Taipei, Taiwan). The fibromyalgia model was developed by Ueda's group, in which mice were treated with intermittent cold stress for 2 days (Nishiyori, M.; Ueda, H. Prolonged gabapentin analgesia in an experimental mouse model of fibromyalgia. Mol. Pain 2008, 4, 52). Mice treated with intermittent cold stress developed long-lasting (>2 weeks) mechanical and thermal hyperalgesia. Analgesic effects of compound I-a1 (JMF3737) via i.p. (in 0.5% HPβCD) or p.o. (in 1% HPβCD) routes and compound I-d1 (JMF4413) via i.p. (in 0.5% HPβCD) were tested in these mice 5 days after intermittent cold stress. Mechanical hyperalgesia was assayed by testing the withdrawal response of mouse hindpaws to 0.2-mN von Frey filament stimulation.
# Bioavailability = conditions: in vivo; read-out: bioavailability (F)
# Solubility = format: physicochemical
# [4] = p.o. (oral gavage), ICS mouse model
compound,measurement,setting,value
"CCCCNC(=O)OC[C@H]1O[C@@H](n2cnc3c(NCc4ccc(O)cc4)ncnc32)C(O)C1O (stereo partly drawn) [Compound 8, 5′-O-(n-Butylaminocarbonyl)-N^6-(4-hydroxybenzyl)adenosine]",melting point,,187.4 to 189 °C
"O=C(O)CNC(=O)OC[C@H]1O[C@@H](n2cnc3c(NCc4ccc(O)cc4)ncnc32)C(O)C1O (stereo partly drawn) [I-a1, 5′-O-(Glycine-N-carbonyl)-N^6-(4-hydroxybenzyl)adenosine]",induced outward current (IJMF3737) inhibited by NK1R antagonist,"[1]; JMF3737 10 μM with RP67580 10 μM, reversible inhibition",15 pA
same,induced outward current (IJMF3737),"[1]; JMF3737 10 μM, muscle nociceptors",40 pA
same,dose without causing appreciable detrimental effect,[2]; i.p. and p.o.,at least 64 mg/kg
same,pain sensitivity to von Frey filament stimulation after repeated treatment,"[3]; 1 mg/kg oral once a day for 4 days, since day 8, n=4",decreased pain sensitivity
same,acute analgesic effect during repeated treatment,"[3]; 1 mg/kg oral once a day, day 5 to day 8, n=4",shows acute analgesic effect
same,tolerance / therapeutic effect on repeated treatment,[3],no tolerance but therapeutic effect
same,tolerance / therapeutic effect on repeated treatment,[3]; listed as JMF3737,does not cause tolerance
same,analgesic effect (in words),[3]; 2 mg (4 μmol)/kg via oral route,appreciable analgesic effect
same,analgesic effect (in words),[3]; ICS mouse model,superior analgesic effect to that of T1-11
same,"dose-dependent analgesic effect, effective dose starting from","[3]; i.p., ICS mouse model",1 mg/kg
same,"dose-dependent analgesic effect, effective dose starting from",[3]; [4],1 mg/kg
same,analgesic effect compared with T1-11,[3]; via oral route,better analgesic effect over T1-11
"O=C(O)CNC(=O)NC[C@H]1O[C@@H](n2cnc3c(NCc4ccc(O)cc4)ncnc32)C(O)C1O (stereo partly drawn) [I-d1, 5′-Deoxy-5′-(glycine-N-amido)-N^6-(4-hydroxybenzyl)adenosine]",dose without causing appreciable detrimental effect,[2]; i.p.,64 mg/kg
same,analgesic effect (in words),"[3]; 64 mg/kg via i.p. route, n=2",good analgesic effect
same,analgesic effect (in words),[3]; ICS mouse model,excellent analgesic effect
"OC[C@H]1O[C@@H](n2cnc3c(NCc4ccc(O)cc4)ncnc32)[C@H](O)[C@@H]1O [T1-11, N^6-(4-hydroxybenzyl)adenosine, reference compound]",bioavailability,Bioavailability,~5%
same,solubility in dimethylsulfoxide (DMSO),Solubility,good solubility
same,analgesic effect (in words),[3]; ICS mouse model,excellent analgesic effect
same,"dose-dependent analgesic effect, effective dose starting from","[3]; i.p., ICS mouse model",0.03 mg/kg
same,"dose-dependent analgesic effect, effective dose starting from",[3]; [4],8 mg/kg
